Test results: US7138361B2, “Herbicidal heterocycles” (E. I. du Pont de Nemours and Company, priority 2000, dated 2006)

Tests used:
Format in all cases: in vivo
[1] = test system: goosegrass (Eleusine indica); assay: Test C preemergence
In short: (§1)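 Seeds are planted and treated before emergence; for the postemergence test, plants at 1- to 4-leaf stage (2–18 cm) receive the same formulation, a solvent blend containing surfactant. Plants stay in the greenhouse 12–14 days, then response is scored visually from 0 (none) to 100 (complete control).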

[2] = test system: lambsquarters (Chenopodium album); assay: Test C preemergence
In short: as §1

[3] = test system: Nightshade; assay: Test C preemergence
[4] = test system: yellow nutsedge (Cyperus esculentus); assay: Test C preemergence
In short: as §1

[5] = test system: velvetleaf (Abutilon theophrasti); assay: Test C preemergence
In short: as §1

[6] = test system: morningglory (Ipomoea hederacea); assay: Test C preemergence
In short: as §1

[7] = test system: common ragweed (Ambrosia elatior); assay: Test C preemergence
In short: as §1

[8] = test system: corn (Zea mays); assay: Test C preemergence
In short: as §1

[9] = test system: Sunflower; assay: Test C preemergence; settings: Rate 125 g/ha; scale 0 to 100, 0 no effect, 100 complete control
[10] = test system: johnsongrass (Sorghum halepense); assay: Test C preemergence
In short: as §1

[11] = test system: giant foxtail (Setaria faberii); assay: Test B postemergence; settings: 13 to 15 days
In short: (§2)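 Visual injury scores, 0 = no effect to 100 = complete control, assigned against controls after 13 to 15 days in the greenhouse. Compounds formulated in non-phytotoxic solvent plus surfactant and applied to soil after planting (pre) or onto foliage of 1- to 4-leaf plants (post).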

[12] = test system: morning glory (Ipomoea hederacea); assay: Test B postemergence; settings: 13 to 15 days
In short: as §2

[13] = test system: pigweed (Amaranthus retroflexus); assay: Test B postemergence; settings: 13 to 15 days
In short: as §2

[14] = test system: crabgrass (Digitaria sanguinalis); assay: Test B postemergence; settings: 13 to 15 days
In short: as §2

[15] = test system: wheat (Triticum aestivum); assay: Test B postemergence; settings: 13 to 15 days
In short: as §2

[16] = test system: barnyardgrass (Echinochloa crus-galli); assay: Test B postemergence; settings: 13 to 15 days
In short: as §2

[17] = test system: Surinam grass (Brachiaria decumbens); assay: Test B postemergence; settings: 13 to 15 days
In short: as §2

[18] = test system: velvetleaf (Abutilon theophrasti); assay: Test B postemergence; settings: 13 to 15 days
In short: as §2

[19] = test system: corn (Zea mays); assay: Test B postemergence; settings: 13 to 15 days
In short: as §2

[20] = test system: wild oat (Avena fatua); assay: Test B postemergence; settings: 13 to 15 days
In short: as §2

[21] = test system: cocklebur (Xanthium strumarium); assay: Test B postemergence; settings: 13 to 15 days
In short: as §2

[22] = Rate 62 g/ha, scale 0 to 100, 0 no effect, 100 complete control
[23] = Rate 125 g/ha, scale 0 to 100, 0 no effect, 100 complete control
[24] = preemergence, Rate 31 g/ha, scale 0 to 100
[25] = preemergence, Rate 250 g/ha, visual evaluation after 12 to 14 days
[26] = preemergence, Rate 250 g/ha, scale 0 to 100, 0 no effect, 100 complete control
[27] = Rate 250 g/ha, scale 0 to 100, 0 no effect, 100 complete control
[28] = Rate 125 g/ha, scale 0 (no effect) to 100 (complete control)
[29] = Rate 500 g/ha, scale 0 to 100, 0 is no effect, 100 is complete control
[30] = preemergence, Rate 62 g/ha, scale 0 to 100

CCC(CC)c1ccn(C2CCN(c3ccc(C)c(OC)c3)C2=O)n1 (stereo not drawn) [Compound 81]
Plant response rating, Goosegrass [1, 22]: 100
Plant response rating, Goosegrass [1, 23]: 100
Plant response rating, Goosegrass [1, 24]: 90
Plant response rating (0 to 100), Goosegrass [1, 25]: 100
Plant response rating, Lambsquarters [2, 22]: 100
Plant response rating, Lambsquarters [2, 23]: 100
Plant response rating, Lambsquarters [2, 24]: 100
Plant response rating, Lambsquarters [2, 26]: 100
Plant response rating, Nightshade ([3]; Rate 31 g/ha, scale 0 to 100): 70
Plant response rating, Nightshade [3, 22]: 100
Plant response rating, Nightshade [3, 23]: 100
Plant response rating, Nightshade [3, 27]: 100
Plant response rating, Nutsedge [4, 22]: 0
Plant response rating, Nutsedge [4, 23]: 0
Plant response rating, Nutsedge [4, 24]: 0
Plant response rating, Nutsedge [4, 26]: 0
Plant response rating, Velvetleaf [5, 23]: 30
Plant response rating, Velvetleaf [5, 24]: 0
Plant response rating, Velvetleaf [5, 26]: 80
Plant response rating, Morningglory [6, 22]: 0
Plant response rating, Morningglory [6, 23]: 20
Plant response rating, Morningglory [6, 24]: 0
Plant response rating, Morningglory [6, 26]: 20
Plant response rating, Ragweed, Common [7, 23]: 100
Plant response rating, Ragweed, Common [7, 24]: 30
Plant response rating, Ragweed, Common [7, 26]: 100
Plant response rating, Corn [8, 22]: 0
Plant response rating, Corn [8, 23]: 0
Plant response rating, Corn [8, 24]: 0
Plant response rating (0 to 100), Corn [8, 25]: 0
Plant response rating, Sunflower [9]: 0
Plant response rating, Johnsongrass [10, 22]: 0
Plant response rating, Johnsongrass [10, 23]: 20
Plant response rating, Johnsongrass [10, 24]: 0
Plant response rating (0 to 100), Johnsongrass [10, 25]: 20
Plant response rating, Foxtail, Giant [11, 28]: 0
Plant response rating, Foxtail, Giant [11, 29]: 0
Plant response rating, Morningglory [12, 28]: 80
Plant response rating, Morningglory [12, 29]: 100
Plant response rating, Pigweed [13, 28]: 70
Plant response rating, Pigweed [13, 29]: 90
Plant response rating, Crabgrass [14, 28]: 0
Plant response rating, Crabgrass [14, 29]: 30
Plant response rating, Wheat [15, 28]: 0
Plant response rating, Wheat [15, 29]: 0
Plant response rating, Barnyardgrass [16, 28]: 0
Plant response rating, Barnyardgrass [16, 29]: 0
Plant response rating, Surinam grass [17, 28]: 0
Plant response rating, Surinam grass [17, 29]: 10
Plant response rating, Velvetleaf [18, 28]: 80
Plant response rating, Velvetleaf [18, 29]: 90
Plant response rating, Corn [19, 28]: 10
Plant response rating, Corn [19, 29]: 10
Plant response rating, Wild Oat [20, 28]: 0
Plant response rating, Wild Oat [20, 29]: 0
Plant response rating, Cocklebur [21, 28]: 90
Plant response rating, Cocklebur [21, 29]: 100

CCCC(C)c1ccn(C2SCN(c3cccc(OC(F)(F)F)c3)C2=O)n1 (stereo not drawn) [Compound 90]
Plant response rating, Goosegrass [1, 23]: 100
Plant response rating, Goosegrass [1, 24]: 20
Plant response rating, Goosegrass [1, 30]: 100
Plant response rating, Goosegrass [1, 26]: 100
Plant response rating, Lambsquarters [2, 23]: 100
Plant response rating, Lambsquarters [2, 24]: 10
Plant response rating, Lambsquarters [2, 30]: 100
Plant response rating, Lambsquarters [2, 26]: 100
Plant response rating, Nightshade ([3]; Rate 31 g/ha, scale 0 to 100): 0
Plant response rating, Nightshade ([3]; Rate 62 g/ha, scale 0 to 100): 0
Plant response rating, Nightshade [3, 23]: 0
Plant response rating, Nightshade [3, 27]: 0
Plant response rating, Nutsedge [4, 23]: 0
Plant response rating, Nutsedge [4, 24]: 0
Plant response rating, Nutsedge [4, 30]: 0
Plant response rating, Nutsedge [4, 26]: 0
Plant response rating, Velvetleaf [5, 23]: 0
Plant response rating, Velvetleaf [5, 24]: 0
Plant response rating, Velvetleaf [5, 30]: 0
Plant response rating, Velvetleaf [5, 26]: 0
Plant response rating, Morningglory [6, 23]: 0
Plant response rating, Morningglory [6, 24]: 0
Plant response rating, Morningglory [6, 30]: 0
Plant response rating, Morningglory [6, 26]: 0
Plant response rating, Ragweed, Common [7, 23]: 0
Plant response rating, Ragweed, Common [7, 24]: 0
Plant response rating, Ragweed, Common [7, 30]: 0
Plant response rating, Ragweed, Common [7, 26]: 0
Plant response rating, Corn [8, 23]: 0
Plant response rating, Corn [8, 24]: 0
Plant response rating, Corn [8, 30]: 0
Plant response rating, Corn [8, 26]: 10
Plant response rating, Sunflower [9]: 0
Plant response rating, Johnsongrass [10, 23]: 70
Plant response rating, Johnsongrass [10, 24]: 10
Plant response rating, Johnsongrass [10, 30]: 10
Plant response rating, Johnsongrass [10, 26]: 100
Plant response rating, Foxtail, Giant [11, 28]: 0
Plant response rating, Foxtail, Giant [11, 29]: 40
Plant response rating, Morningglory [12, 29]: 70
Plant response rating, Pigweed [13, 29]: 90
Plant response rating, Crabgrass [14, 28]: 20
Plant response rating, Crabgrass [14, 29]: 50
Plant response rating, Wheat [15, 29]: 0
Plant response rating, Barnyardgrass [16, 28]: 20
Plant response rating, Barnyardgrass [16, 29]: 80
Plant response rating, Surinam grass [17, 28]: 0
Plant response rating, Surinam grass [17, 29]: 30
Plant response rating, Velvetleaf [18, 29]: 40
Plant response rating, Corn [19, 28]: 0
Plant response rating, Corn [19, 29]: 10
Plant response rating, Wild Oat [20, 29]: 20
Plant response rating, Cocklebur [21, 28]: 20
Plant response rating, Cocklebur [21, 29]: 60
